Data set [1] deals with Staph. aureus, strain 642a. In words: In vivo activity: survival of infected mice, oral administration (Example 29). The note with it: after 0.5 ml homogenized milk; for ED50: Staphylococcus aureus, 642A, 120 h, oral administration, mice infected with 100 x LD50 Staph. aureus, read-out: effective dose (ED50); for Mice Surviving: groups of ten mice, five days after infection. On the procedure: (§1) Eight groups of ten female CF-1 mice, each weighing 18-20 g. were supplied with food and water ad lib and injected intraperitoneally with a lethal dose (100 x LD50) of Staph. aureus, strain 642a. At 1 and 5 hours after intraperitoneal infection, the mice were administered by intraperitoneal injection equal doses of either erythromycin A ("A") or 4"-L-leu-gly-L-pro-erythromycin A ("B") dissolved in a phosphate buffered saline solution.
The procedure of Example 25 was repeated except that the erythromycin A and 4"-L-leu-gly-L-pro erythromycin A were administered orally, and that 0.5 ml of homogenized milk was administered orally to each mouse prior to administration of the test compound to minimize acid degredation of the test compound.

For data set [2], the system named is Staph. aureus, strain 642a. The experiment in a line: In vivo activity: survival of infected mice, intraperitoneal administration (Example 27). The following applies: for ED50: Staphylococcus aureus, 642A, ip, 120 h, intraperitoneal injection, mice infected with 100 x LD50 Staph. aureus, read-out: effective dose (ED50); for Mice Surviving: 5 days after infection. The procedure:
as §1

Data set [3] concerns Staph. aureus, strain 642a. In words: In vivo activity: survival of infected mice, subcutaneous administration (Example 28). The following applies: for ED50: Staphylococcus aureus, 642A, sc, 120 h, subcutaneous administration, mice infected with 100 x LD50 Staph. aureus, read-out: effective dose (ED50); for Mice Surviving: groups of ten mice, five days after infection. The procedure:
as §1
The procedure of Example 25 was repeated except that the erythromycin A and 4"-L-leu-gly-L-pro-erythromycin A were administered subcutaneously instead of intraperitoneally.

The test system of the next data set is gastrointestinal tissue. The experiment in a line: Gastrointestinal motility in anesthetized dogs, strain gauge transducers (Example 30). The following applies: 1.0 mg./kg. intravenously; strain gauge readings; result in words.

A value given as a limit tells only on which side of the number the result lay.

Data on three compounds can be found in patent EP0126344A2, “Tripeptide esters of therapeutic agents” (ABBOTT LABORATORIES, priority 1983, dated 1984).

Description for gastrointestinal tissue: Female beagle dogs having a weight of 7.0 to 11.0 kg. were anesthetized with pentobarbital and maintained in surgical anesthesia by supplemental I.V. injections of pentobarbital as needed. The body temperature of each dog was maintained at 36-37° C. The trachea was cannulated and the animal maintained on a respirator at 12 strokes/minute with a volume of 200 ml./stroke. The femoral artery was cannulated for blood pressure recording and both femoral veins were cannulated for intravenous injections and blood collection. Each dog was then prepared for gastrointestinal motility determinations as follows. […]
After an equilibration period of 15 minutes, a dose of 50 pg/.kg. of methacholine was administered intravenously to the dog over a period of thirty seconds and the strain gauge readings were monitored to obtain a standard measurement of reactivity of the gastrointestinal tract.
The strain gauge readings were again monitored to determine effect of the test compound on motility of the gastrointestinal tissue.

Regarding `CC[C@H]1OC(=O)[C@H](C)[C@@H](O[C@H]2C[C@@](C)(OC)[C@@H](OC(=O)[C@@H]3CCCN3C(=O)CNC(=O)[C@@H](N)CC(C)C)[C@H](C)O2)[C@H](C)[C@@H](O[C@@H]2O[C@H](C)C[C@H](N(C)C)[C@H]2O)[C@](C)(O)C[C@@H](C)C(=O)[C@H](C)[C@@H](O)[C@]1(C)O` [B, 4"-L-leu-gly-L-pro-erythromycin A], the results for the ED50 in data set [1], in data set [2] and in data set [3] were 181 mg/kg, 0.6 mg/kg and 3.1 mg/kg, respectively. Besides, the “Mice Surviving” value in data set [1] (total dose 3.2 mg/kg oral) is given as 0; in data set [1] (total dose 12.8 mg/kg oral), 0; in data set [1] (total dose 51.3 mg/kg oral), 0; in data set [1] (total dose 205 mg/kg oral), 6; in data set [2] (total dose 0.6 mg/kg intraperitoneal, groups of ten mice) it was 5; in data set [2] (total dose 2.6 mg/kg intraperitoneal, groups of ten mice), 10. Moreover, the “Mice Surviving” value in data set [2] (total dose 10.5 mg/kg intraperitoneal, groups of ten mice) was determined as 10; in data set [2] (total dose 41.1 mg/kg intraperitoneal, groups of ten mice), 10; in data set [3] (total dose 0.6 mg/kg subcutaneous), 2; in data set [3] (total dose 2.6 mg/kg subcutaneous), 5; in data set [3] (total dose 10.5 mg/kg subcutaneous), 6; in data set [3] (total dose 41.1 mg/kg subcutaneous), 10.

For `CC[C@H]1OC(=O)[C@H](C)[C@@H](O[C@H]2C[C@@](C)(OC)[C@@H](O)[C@H](C)O2)[C@H](C)[C@@H](O[C@@H]2O[C@H](C)C[C@H](N(C)C)[C@H]2O)[C@](C)(O)C[C@@H](C)C(=O)[C@H](C)[C@@H](O)[C@]1(C)O` [A, erythromycin A], the results for the ED50 in data set [1], in data set [2] and in data set [3] were 110 mg/kg, less than 0.4 mg/kg and 2.8 mg/kg, respectively. Further, the “Mice Surviving” value in data set [1] (total dose 2.3 mg/kg oral) is given as 0; in data set [1] (total dose 9.4 mg/kg oral), 0; in data set [1] (total dose 37.5 mg/kg oral), 0; in data set [1] (total dose 150 mg/kg oral) it was 7; in data set [2] (total dose 0.4 mg/kg intraperitoneal, groups of ten mice), 9; in data set [2] (total dose 1.9 mg/kg intraperitoneal, groups of ten mice), 9. Further, the “Mice Surviving” value turned out to be 10 in data set [2] (total dose 7.5 mg/kg intraperitoneal, groups of ten mice); 10 in data set [2] (total dose 30 mg/kg intraperitoneal, at 1 and 5 hours after infection, groups of ten female CF-1 mice); 1 in data set [3] (total dose 0.4 mg/kg subcutaneous); 1 in data set [3] (total dose 1.9 mg/kg subcutaneous); 10 in data set [3] (total dose 7.5 mg/kg subcutaneous); 10 in data set [3] (total dose 30 mg/kg subcutaneous).

For the compound `CC[C@H]1OC(=O)[C@H](C)[C@@H](O[C@H]2C[C@@](C)(OC)[C@@H](O)[C@H](C)O2)[C@H](C)[C@@H](O[C@@H]2O[C@H](C)C[C@H](N(C)C)[C@H]2O)[C@](C)(O)C[C@@H](C)C(=O)[C@H](C)[C@@H](O)[C@]1(C)O` [Erythromycin Lactobionate, erythromycin A lactobionate], in the data set with gastrointestinal tissue, the “effect of the test compound on motility of the gastrointestinal tissue” value is “pronounced stimulation of the stomach, duodenum, jejunum and ileum, with no apparent effect on the colon”.
